From paper PMC9246869, “Allosteric inhibition of PPM1D serine/threonine phosphatase via an altered conformational state” (Nature Communications, 2022)

Molecular target: T1, PPM1D1–420 (Homo sapiens, UniProt O15297)
T1 construct: PPM1D1–420 was PCR-amplified from the synthesized gene with BsaI sites; His(6)-SUMO (N, cleaved yes); made in house; host or cells: E. coli BL21 (DE3)
T1 sequence (O15297 1-420): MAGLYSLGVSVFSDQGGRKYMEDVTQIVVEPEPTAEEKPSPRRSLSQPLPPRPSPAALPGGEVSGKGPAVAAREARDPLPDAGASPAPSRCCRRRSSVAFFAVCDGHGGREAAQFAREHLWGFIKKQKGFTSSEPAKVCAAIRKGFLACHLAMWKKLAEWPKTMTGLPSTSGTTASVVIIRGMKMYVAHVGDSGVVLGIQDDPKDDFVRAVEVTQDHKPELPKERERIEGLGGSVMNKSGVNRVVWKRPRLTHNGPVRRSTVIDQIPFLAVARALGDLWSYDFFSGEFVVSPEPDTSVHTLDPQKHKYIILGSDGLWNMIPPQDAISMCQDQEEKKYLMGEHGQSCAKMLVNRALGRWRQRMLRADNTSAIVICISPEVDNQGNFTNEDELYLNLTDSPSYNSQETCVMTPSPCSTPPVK
Assay: Hydrogen–deuterium exchange mass spectrometry (HDX-MS)
Experimental: Hydrogen–deuterium exchange in PPM1D proteins (PPM1D1–420, PPM1D∆Flap, and PPM1D∆Hinge) was monitored by incubating 27 pmoles of protein in storage buffer (50 mM Tris HCl pH 7.4, 500 mM NaCl, 10% glycerol, 10 mM MgCl2, 1 mM TCEP, H2O) with a 10-fold molar excess of GSK2830371 (270 pmoles) in DMSO, or 3.85% DMSO as a control. Due to the low solubility of the compound, the exact molar excess was unknown. […] The slow off-rate of the compound likely plays a role in this. The PPM1D:GSK/DMSO mix equilibrated for 15 min at room temperature, followed by the addition of a 15-fold excess of labeling buffer (20 mM HEPES, pD 7.5, 25 mM NaCl, 5 mM MgCl2, 0.1 mM TCEP, D2O) at 25 °C. Analysis of C-terminal truncations of PPM1D were performed without the DMSO and preincubation step. […]
All samples were digested immediately after quench by injecting directly into an M-class nanoAcquity UPLC with HDX technology (Waters) for online digestion with an Enzymate BEH pepsin column [2.1 × 30 mm, 5 μm (Waters)] and UPLC peptide separation. […] Back-exchange was calculated based on deuterium uptake observed in peptides within PPM1D that are solvent accessible, lack structure, and display these characteristics in their uptake profile (high deuterium incorporation that remains a flat line over 4 h time course). […]

## Cc1ncc(Cl)cc1NCc1ccc(C(=O)N[C@@H](CC2CCCC2)C(=O)NC2CC2)s1 [GSK2830371]
  protein in the exposed population (bimodal distribution, residues 270-278) in presence of compound: > 95%
